Measurements published in patent publication US6027875A, “Receptor infection assay” (The Salk Institute for Biological Studies, priority 1991, dated 2000).
Like-named read-outs stand apart in the source and are kept apart here.

Assays:
[1] = target: T1, human glucocorticoid receptor (GR) (Homo sapiens, UniProt P04150); assay: Functional assay with recombinant receptor (hGR4) and reporter (MLUC3) viruses in 293 cells, luciferase activity; details: 22 hours after infection; for Luciferase response to dex mimicked by other adrenocorticosteroids: hGR4 + MLUC3 coinfected 293 cells
T1 sequence (P04150 1-777): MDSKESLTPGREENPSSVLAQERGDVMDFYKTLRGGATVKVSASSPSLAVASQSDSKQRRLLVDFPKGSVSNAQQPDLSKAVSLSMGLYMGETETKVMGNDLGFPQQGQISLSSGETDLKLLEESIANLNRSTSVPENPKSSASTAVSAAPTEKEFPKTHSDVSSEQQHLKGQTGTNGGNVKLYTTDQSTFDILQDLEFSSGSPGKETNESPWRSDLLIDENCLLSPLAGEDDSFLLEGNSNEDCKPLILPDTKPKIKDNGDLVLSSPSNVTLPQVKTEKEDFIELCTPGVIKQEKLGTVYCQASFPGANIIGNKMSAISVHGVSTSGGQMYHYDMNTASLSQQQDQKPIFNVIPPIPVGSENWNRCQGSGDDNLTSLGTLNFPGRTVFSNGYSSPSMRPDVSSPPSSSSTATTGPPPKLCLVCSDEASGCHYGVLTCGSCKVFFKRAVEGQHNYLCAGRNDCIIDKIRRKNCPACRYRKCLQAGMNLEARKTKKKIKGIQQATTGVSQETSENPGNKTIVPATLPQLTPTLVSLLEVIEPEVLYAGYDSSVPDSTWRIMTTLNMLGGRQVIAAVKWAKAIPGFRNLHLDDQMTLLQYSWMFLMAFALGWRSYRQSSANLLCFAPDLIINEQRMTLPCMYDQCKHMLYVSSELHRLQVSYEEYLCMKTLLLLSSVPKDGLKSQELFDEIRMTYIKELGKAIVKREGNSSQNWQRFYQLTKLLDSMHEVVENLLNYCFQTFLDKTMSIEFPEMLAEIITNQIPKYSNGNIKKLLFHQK
Description: A reporter virus (MLUC3; also variously referred to as Ad3MLUC, MpCV3MTV-LUC-Ad and ADMLUC) was constructed containing the mouse mammary tumor virus LTR linked to the firefly luciferase cDNA with an SV40 polyadenylation signal (Hollenberg, et al., Cell 55, 899 (1988)) similar to the receptor virus hGR4 above. The two viruses, hGR4 and MLUC3, were coinfected into 293 cells growing in DMEM suplemented with 10% charcoal adsorbed fetal calf serum ±10^-7 M dexamethasone (dex), and cellular extracts were prepared by Triton X-100™ brand non-ionic surfactant lysis at 22 hours after infection. (Williams, et al., Anal. Biochem 176, 28 (1989)) These were tested for luciferase activity by incubating with ATP and luciferin in a suitable buffer system. (de Wet, et al., Mol. Cell Biol. 7, 725 (1987)). Light liberated in this reaction was measured using a luminometer.

[2] = target: T1, human glucocorticoid receptor (GR); details: 293 cell lysate, 20 µL/200 µL assayed
Experimental: The coinfection assay was carried out in the following manner. Twelve well dishes were seeded with 293 cells at a density of 1.2×10^5 cells per well and grown in Dulbecco's modified Eagle's medium (DME) supplemented with 10% fetal calf serum. Assuming that the hGR4, MLUC3, and dl 309 virus stocks were 10^8 PFU/ml, the next day cells were infected with various combinations of these stocks in triplicate at a multiplicity of infection corresponding to 50. Dexamethasone dissolved in 50% ethanol or the control vehicle alone were each diluted into DME supplemented with 10% charcoal-adsorbed fetal calf serum at a final concentration of 0.1 μM. These mixtures were added to cells adsorbed with virus for thirty minutes. Cells were harvested at 18, 22 and 89 hours after infection by scraping them from the plate and washing the cell pellets in phosphate-buffered saline, and resuspending them in 100 microliters of 100 mM K2 HPO4 (pH 7.8), 1 mM dithiothreitol). Cell lysates were prepared by three cycles of sequential freezing and thawing in a dry ice/ethanol and 37° C. baths. Cell debris was pelleted by centrifugation in a microcentrifuge for 5 minutes at 4° C. […] Luciferase enzyme activity was assayed by automatic injection of 1 mM d-luciferin (Analytical Luminescence Laboratories) as described in de Wet et al. Mol. Cell. Biol. 7, 725 (1987) using a Berthold luminometer.
The orientation is reversed relative to the major late promoter with the RSV long term repeat promoter driving the expression of the human glucocorticoid receptor DNA terminating with SV40 polyadenylation sequence. This orientation removes the tripartite leader from functioning in its usual manner. A separate vector for the receptor DNA is constructed similarly. The two vectors are separately used to infect 293 cells. First, 293 cells are infected with the vector bearing the human glucocorticoid receptor DNA. Successful infection can be tested by picking plaques and doing a Western analysis with human glucocorticoid receptor antibodies or one can measure the ligand binding properties of the extracts or one can do a restriction map analysis to assure proper infection with the human glucocoid receptor adenovirus DNA. Successfully infected cells are then infected with the reporter virus vector. Alternatively, both vectors could be mixed on, for example, 293 cells. Where host cells not bearing a complement of the adenovirus genome are used, one may coinfect with wild-type virus in order to supply the missing complement. […] The material to be tested may either be added in at the beginning or at such twenty-two hour period. The cells are then tested for measurement of the reporter activity. In the case of the exemplified luciferase gene, that measurement takes the form of quantitating light emission from luciferin oxidized by any luciferase present.

[3] = target: T1, human glucocorticoid receptor (GR); assay: Detection of glucocorticoids: cells infected with hGR4 and MLUC3, luciferase activity; assay type: cell-based; parameters: expressed in transfected cells; host or cells: 293 cells (human embryonic kidney) infected with recombinant adenovirus hGR4 and reporter virus MLUC3; A3: 293 or CV-1 cells; details: 10^-8 M cortisol, 18 hours p.i., read-out: Share of the maximal transcriptional response
Experimental: Cells were infected with hGR4 and MLUC3 recombinant adenoviruses in the presence of varying concentrations of cortisol from 10^-11 M to 10^-5 M in 3-fold dilution steps. At 18 hours p.i., lysates were prepared and luciferase activity was measured. Approximately 10% of the maximal transcriptional response was detected at 10^-8 M cortisol. Since standard assay volumes are 200 μl per well in a 96 sample microliter dish, this represents about 2×10^-12 mole or about 0.6 ng of cortisol.

[4] = target: T1, human glucocorticoid receptor (GR); assay: Luciferase-based coinfection assay with unpurified virus stocks in 293 or CV-1 cells; parameters: expressed in transfected cells; host or cells: 293 cells (human embryonic kidney) infected with recombinant adenovirus hGR4 and reporter virus MLUC3; A3: 293 or CV-1 cells; details: 293 or CV-1 cells infected with both stocks, ten PFU/cell; lysates at twenty-two hours after infection
Description: With the unpurified virus stocks, their ability to measure hormone-responsiveness was accomplished using various adrenocorticosteroid, in the luciferase based assay. Assuming that the titer of the viral stocks was approximately 10^8 PFU/ML, either 293 cells or CV-1 cells that have low endogenous GR levels were infected with both stocks at a multiplicity of infection equal to ten PFU/cell. At twenty-two hours after infection (empirically determined to be the time when maximal GR synthesis occurs by Western blot measurement of protein), cell lysates were prepared and tested for luciferase activity.
Within the concentration range of 10^-10 and 10^-5 M of corticosteroids, dose response curves were generated that appeared by all qualitative criteria to resemble the binding activities of those glucocorticoids for the receptor protein.

In the case of `C[C@@H]1C[C@H]2[C@@H]3CCC4=CC(=O)C=C[C@]4(C)[C@@]3(F)[C@@H](O)C[C@]2(C)[C@@]1(O)C(=O)CO` [DEX, Dexamethasone], the “Additional enhancement of the luciferase response by coinfection with hGR4” value ([1]; MLUC3 + hGR4 (not with parental dl 309), 10^-7 M dex, 293 cells, 0.1 µM) is reported as 5 fold, the “Stimulation of luciferase activity” value ([1]; MLUC3 alone, 10^-7 M dex, 293 cells, 0.1 µM) is reported as 10 fold and the “Response of cell lysate (luciferase activity), with CV” value (shortened to “Response of cell lysate”) ([2]; co-infection HGR + DL309, 18 HRS after co-infection, DEX 3 × 10^-9) is reported as 35 (28%). For the same molecule, the “Response of cell lysate” value ([2]; co-infection HGR + DL309, 18 HRS after co-infection, DEX 10^-7 M) was 33, the “Response of cell lysate” value ([2]; co-infection HGR + DL309, 22 HRS after co-infection, DEX 3 × 10^-9) was 40 (19%) and the “Response of cell lysate” value ([2]; co-infection HGR + DL309, 22 HRS after co-infection, DEX 10^-7 M) was 42 (38%). The “Response of cell lysate” value ([2]; co-infection HGR + DL309, 89 HR after co-infection, DEX 3 × 10^-9) was 22 (14%), the “Response of cell lysate” value ([2]; co-infection HGR + DL309, 89 HR after co-infection, DEX 10^-7 M) was 27 (4%) and the “Response of cell lysate” value ([2]; co-infection HGR + MTV-LUC, 18 HRS after co-infection, DEX 3 × 10^-9) was 30015. The “Response of cell lysate” value ([2]; co-infection HGR + MTV-LUC, 18 HRS after co-infection, DEX 10^-7 M) was 72864, the “Response of cell lysate” value ([2]; co-infection HGR + MTV-LUC, 22 HRS after co-infection, DEX 3 × 10^-9) was 48858 (14%) and the “Response of cell lysate” value ([2]; co-infection HGR + MTV-LUC, 22 HRS after co-infection, DEX 10^-7 M) was 90718 (18%). For the same molecule, the “Response of cell lysate” value ([2]; co-infection HGR + MTV-LUC, 89 HR after co-infection, DEX 3 × 10^-9) was 1246 (68%), the “Response of cell lysate” value ([2]; co-infection HGR + MTV-LUC, 89 HR after co-infection, DEX 10^-7 M) was 1065 (7%) and the “Response of cell lysate” value ([2]; co-infection MTV-LUC + DL309, 18 HRS after co-infection, DEX 3 × 10^-9) was 3643 (20%). For the same molecule, the “Response of cell lysate” value ([2]; co-infection MTV-LUC + DL309, 18 HRS after co-infection, DEX 10^-7 M) was 19130, the “Response of cell lysate” value ([2]; co-infection MTV-LUC + DL309, 22 HRS after co-infection, DEX 3 × 10^-9) was 5095 (12%) and the “Response of cell lysate” value ([2]; co-infection MTV-LUC + DL309, 22 HRS after co-infection, DEX 10^-7 M) was 24215 (4%). The “Response of cell lysate” value ([2]; co-infection MTV-LUC + DL309, 89 HR after co-infection, DEX 3 × 10^-9) was 53 (48%), the “Response of cell lysate” value ([2]; co-infection MTV-LUC + DL309, 89 HR after co-infection, DEX 10^-7 M) was 151 (23%) and the “Response of cell lysate” value ([2]; infection DL309 only, 18 HRS after co-infection, DEX 3 × 10^-9) was 28 (5%). For the same molecule, the “Response of cell lysate” value ([2]; infection DL309 only, 18 HRS after co-infection, DEX 10^-7 M) was 32, the “Response of cell lysate” value ([2]; infection DL309 only, 22 HRS after co-infection, DEX 3 × 10^-9) was 42 (22%) and the “Response of cell lysate” value ([2]; infection DL309 only, 22 HRS after co-infection, DEX 10^-7 M) was 43 (11%). For the same molecule, the “Response of cell lysate” value ([2]; infection DL309 only, 89 HR after co-infection, DEX 3 × 10^-9) was 22 (24%) and the “Response of cell lysate” value ([2]; infection DL309 only, 89 HR after co-infection, DEX 10^-7 M) was 23 (7%).

For `C[C@]12CCC(=O)C=C1CC[C@@H]1[C@@H]2[C@@H](O)C[C@]2(C=O)[C@@H](C(=O)CO)CC[C@@H]12` [aldosterone], the “Luciferase response to dex mimicked by other adrenocorticosteroids” value (shortened to “Luciferase response to dex mimicked”) [1] was “mimicked”.

In the case of `C[C@]12C[C@H](O)[C@H]3[C@@H](CCC4=CC(=O)CC[C@@]43C)[C@@H]1CC[C@@H]2C(=O)CO` [corticosterone], the “Luciferase response to dex mimicked” value [1] is reported as “mimicked”.

In the case of `C[C@]12CCC(=O)C=C1CC[C@@H]1[C@@H]2[C@@H](O)C[C@@]2(C)[C@H]1CC[C@]2(O)C(=O)CO` [cortisol], the “Luciferase response to dex mimicked” value [1] is reported as “mimicked” and the activation at 0.01 µM [3] is reported as roughly 10%.

`CC1=C(/C=C/C(C)=C/C=C/C(C)=C/C(=O)O)C(C)(C)CCC1` [retinoic acid] was tested, and the “Induction of luciferase activity (inducer in this system)” value [4] was “ineffective inducers”.

With estrogen the “Luciferase response to dex mimicked” value [1] was “mimicked” and the “Induction of luciferase activity (inducer in this system)” value [4] was “ineffective inducers”.
